Data on four molecules can be found in patent publication US20140303123A1, “SYNTHESIZING FUNCTIONALIZED DENDRIMERS WITHIN BIOLOGICAL SETTINGS” (priority 2011, published 2014).

For one test, the system named is folate receptor. The settings on record: relative to folic acid; cited from earlier work.
The subject of test [1] is FRα over-expressing KB cells. Description: Uptake of dendrimer conjugates in KB cells, in situ CuAAC detection with fluorescent azide, flow cytometry. Format: cell-based. The conditions noted are these: increasing concentrations, 1 hour at 37° C., Alexa647-azide detection (FIG. 2A).
Protocol: KB cells were cultured in RPMI 1640 medium without folic acid for at least 4 days before experiments, resulting in the folic acid receptor overexpressing KB (FAR-KB) cell line. […] For the flow cytometry measurements, cells were seeded on a 12-well plate for tissue culture at a concentration of 23105 cells/well and grown in folic acid deficient RPMI 1640 media (Mediatech, Herndon, Va.) at 37° C., 5% CO2 for 24 hr. The cells were then incubated with the series of the prepared nanodevices at either 37° C. for 1 hr. After removal of supernatants, cells were trypsinized and collected into FACS tubes, followed by centrifugation at 1500 rpm for 5 min to obtain cell pellets. […] Fluorescence signal intensities from the samples were measured using a Coulter EPICS/XL MCL Beckman-Coulter flow cytometer, and data were analyzed using FloJo 8.2 software (TreeStar).
After 4% paraformaldehyde fixation and permeabilization with 10% saponin in PBS and BSA, cells were rinsed and then stained by incubating cells for 30 min with 100 mM Tris (pH 8.5), 1 mM CuSO4, 1-100 μM fluorescent azide (in DMSO), and 100 mM ascorbic acid (added last to the mix in 0.5 M stock in water). […] After staining, cells were washed with 10% saponin solution and assessed by flow cytometry.
For test [2], the system named is CD11b+ macrophages (peritoneal macrophages, lymph nodes). Description: In vivo trafficking of FA-targeted dendrimer nanoparticles in a murine model of inflammation (thioglycollate IP). The conditions noted are these: thioglycollate-stimulated mice, 35 mg/kg IP on day 3, cells isolated day 4 (FIG. 6); for uptake in peritoneal macrophages (PEM): 35 mg/kg. As for the experimental part:
Mice (n=2) were stimulated with thioglycollate IP. 3 days following thioglycollate, mice were administered 200 μl (35 mg/kg) folate functionalized dendrimer alkyne scaffolds. One day later (day 4), peritoneal macrophages (PEM), spleen, cervical lymph nodes, and mesenteric lymph nodes were isolated and processed into single-cell suspensions. Suspensions were stained with a CD11b monoclonal PE antibody and then fixed and permeabilized. Cell suspensions were then reacted with AlexaFluor 647-azide to detect dendrimer conjugates and analyzed by flow cytometry.
On day 1, mice (n=2) were treated IP with thioglycollate to stimulate folate receptor positive macrophage infiltration into the peritoneal cavity (see, e.g., Xia, W. et al. Blood 113, 438-446 (2005); herein incorporated by reference in its entirety). On day 3, mice were administered folate targeted dendrimers IP (35 mg/kg). On day 4, peritoneal macrophages (PEM) as well as the spleen, submandibular lymph nodes, and mesenteric lymph nodes were isolated and processed as using standard techniques. Single cell suspensions were made and analyzed by flow cytometry for co-expression of the macrophage marker CD11b and the FA-dendrimer scaffolds. […] Compared to the cervical lymph nodes (secondary lymph organs not draining the peritoneal cavity), there was a greater proportion of double-positive CD11b and FR cells in the mesenteric lymph nodes consistent with the trafficking of these activated macrophages.

The test system of test [3] is bone marrow derived macrophages (BMDM). The settings on record: BMDMs differentiated with IL-4 and IL-10, 30 nM, 6 hours at 37° C. (FIG. 4).
Protocol: Bone marrow derived macrophages (BMDM) were obtained as previously described. Briefly, bone marrow precursors from female C57BL/6 mice were isolated and propagated for 7 days in RPMI 1640 supplemented with penicillin (100 units/ml), streptomycin (100 mg/ml), and 10% heat inactivated low endotoxin fetal bovine serum with L-conditioned media. Following propagation, BMDMs were polarized with murine recombinant proteins M-CSF (10 ng/ml), IL4 (50 ng/ml), IL10 (10 ng/ml), or GM-CSF (10 ng/ml) for 72 hours (Peprotech). For the flow cytometry measurements, cells were seeded on a 12-well plate for tissue culture at a concentration of 23105 cells/well and grown in folic acid deficient RPMI 1640 media (Mediatech, Herndon, Va.) at 37° C., 5% CO2 for 24 hr. […] Fluorescence signal intensities from the samples were measured using a Coulter EPICS/XL MCL Beckman-Coulter flow cytometer, and data were analyzed using FloJo 8.2 software (TreeStar).
After 4% paraformaldehyde fixation and permeabilization with 10% saponin in PBS and BSA, cells were rinsed and then stained by incubating cells for 30 min with 100 mM Tris (pH 8.5), 1 mM CuSO4, 1-100 μM fluorescent azide (in DMSO), and 100 mM ascorbic acid (added last to the mix in 0.5 M stock in water). […] After staining, cells were washed with 10% saponin solution and assessed by flow cytometry. […]

Regarding `CN(Cc1cnc2nc(N)nc(N)c2n1)c1ccc(C(=O)N[C@@H](CCC(=O)O)C(=O)O)cc1` [methotrexate], the “affinity for the folate receptor in comparison to folic acid (lower)” value in the test with folate receptor is 100 fold. Take “G5-NHAc80-Alkyne8-FA4-Gly [FA-dendrimer alkyne conjugates]”: in test [1], the cellular uptake entry is listed as “dose-dependent cellular uptake”. The “uptake in CD11b+ cells in the mesenteric lymph nodes” value in test [2] is “significant uptake”. Further, the “uptake in peritoneal macrophages (PEM)” value in test [2] (listed as FA-dendrimer nanoparticles) is on record as “much higher uptake”; in test [2] (listed as folate nanodevices) it was “significant uptake”.

For the molecule “G5-NHAc80-Alkyne12-Gly [non-targeted dendrimer conjugates]”, in test [1], the cellular uptake entry was “did not demonstrate any significant uptake”. “G5-NHAc80-Alkyne12-Mannose15-Gly [mannose-targeted dendrimers]”: in test [3], the “binding and uptake compared to non-targeted controls” value is “increased binding and uptake”.
